The values that follow come from patent publication US6110944A, “LTA4, hydrolase inhibitors” (G. D. Searle & Co., priority 1997, dated 2000).

SMILES strings stand for the structures. Structures can show the parent of a compound that is named as a salt. Bounds are passed on as bounds.

Assay [1] concerns LTB4 production in calcium ionophore-stimulated human blood. Briefly: LTB4 Production by Calcium Ionophore Stimulated Human Blood (HWB). It counts as cell-based. The following applies: human blood diluted 1:4, 15 min preincubation at 37° C., ionophore 20 mcg/ml, 10 min; read-out: Inhibition of Calcium Ionophore-induced LTB4 Production in Human Blood IC50 HWB. How it is done: LTB4 and Thromboxane Production by Calcium Ionophore Stimulated Human Blood for LTB4 Hydrolase Inhibitor Activity
Human blood, collected in heparin-containing Vacutainer tubes, was diluted 1:4 with RPMI-1640 media and 200 μl of the diluted blood was added into each of a 96-well microtiter plate. One or more concentrations of the leukotriene A4 hydrolase inhibitor compounds being tested were prepared (diluted in DMSO) and 2 μl added and gently mixed with the diluted whole blood. After incubating for 15 minutes at 37° C. in a humidified incubator, calcium ionophore […] (Sigma Chemical Co., St. Louis, Mo.) was added to a final concentration of 20 mcg/ml and the incubation continued under the same conditions for an additional 10 minutes to allow LTB4 formation. The reaction was terminated by centrifugation (833 g, 10 minutes at 4° C.) and supernatant were analyzed for LTB4 and thromboxane by commercially available enzyme-linked immunoassays (Caymen Chemical Co., Ann Arbor, Mich.) according to the manufacturer's instructions. The IC50 of each test compound was determined from the amount of inhibition of LTB4 production as compared to an essentially identical assay in which no inhibitor compound was present.

Assay [2] concerns the target T1, recombinant human LTA hydrolase (rhLTAH) (Homo sapiens, UniProt P09960).
T1 construct: made in house; host or cells: Spodoptera frugiperda Sf-9 cells (baculovirus AcNPV)
T1 sequence (P09960 1-611): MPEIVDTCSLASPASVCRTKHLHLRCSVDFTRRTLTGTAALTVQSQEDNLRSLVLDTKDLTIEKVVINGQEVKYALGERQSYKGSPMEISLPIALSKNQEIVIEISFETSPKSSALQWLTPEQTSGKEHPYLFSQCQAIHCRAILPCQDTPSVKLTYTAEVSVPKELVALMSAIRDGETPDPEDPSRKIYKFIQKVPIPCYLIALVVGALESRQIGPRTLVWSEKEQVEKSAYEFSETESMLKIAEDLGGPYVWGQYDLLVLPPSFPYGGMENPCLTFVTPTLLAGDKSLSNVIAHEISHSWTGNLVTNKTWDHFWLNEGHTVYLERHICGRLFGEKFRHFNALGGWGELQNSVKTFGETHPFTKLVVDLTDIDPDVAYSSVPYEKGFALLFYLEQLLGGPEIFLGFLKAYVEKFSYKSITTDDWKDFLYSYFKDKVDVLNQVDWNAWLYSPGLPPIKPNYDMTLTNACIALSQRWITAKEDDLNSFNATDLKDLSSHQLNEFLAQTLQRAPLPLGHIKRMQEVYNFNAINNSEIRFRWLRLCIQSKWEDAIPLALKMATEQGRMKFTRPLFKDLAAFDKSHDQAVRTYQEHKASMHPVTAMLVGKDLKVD
Briefly: Recombinant Human LTA Hydrolase Assay for LTA Hydrolase Inhibitor Activity. The following applies: 250 ng rhLTA4H, 10 min preincubation, room temperature, pH 7.4, 10 min reaction, immunoassay; read-out: Recombinant Human LTA4 Hydrolase Assay IC50 LTA4. It counts as biochemical. As to the method: Recombinant Human LTA Hydrolase Assay for LTA Hydrolase Inhibitor Activity
Compounds of the present invention were tested for LTA hydrolase inhibitor activity against recombinant human LTA hydrolase (rhLTAH). Recombinant human LTA hydrolase-encoding vectors were prepared and used to express rhLTAH essentially as described by J. Gierse, et al., Protein Expression and Purification, 4, 358-366 (1993). Briefly, LTA hydrolase encoding DNA was amplified by polymerase chain reaction using a pair of oligonucleotide primers based on the nucleotide sequence from the 5'-end, and the complement of the 3'-end, of the coding region of the LTA hydrolase gene, the nucleotide sequence of which gene is known. (See, C. Funk, et al., Proc. Natl. Acad. Sci. U.S.A. 84, 6677-6681 (1987)). A λgt11 human placental cDNA library (Clonetech, Palo Alto, Calif.) provided the nucleic acid template. […] The amplified 1.9 kb DNA was isolated and cloned into the genomic baculovirus, Autographa californica nuclear polyderosis virus (AcNPC) DNA, and the baculovirus expression vector was transfected into Spodoptera frugiperda Sf-9 cells employing the calcium phosphate co-precipitation method (see, M. Summers, et al., Tex. Agric. Exp. Stn. Bull. 1555, 1-57 (1987). Recombinant LTA4 hydrolase enzyme was purified from the transfected Sf-9 cells essentially as described by J. Gierse, et al., supra.
One or more predetermined amounts of a compound of the invention were incubated in assay buffer (0.1 M potassium phosphate, 5 mg/ml fatty acid free BSA, 10% DMSO, pH 7.4) for 10 minutes at room temperature with 250 ng of recombinant hLTA4 H to allow binding, if any, between the enzyme and inhibitor. The stock enzyme solution was 1 mg/m. LTA4 hydrolase, 50 mM Tris, pH 8.0, 150 mM NaCl, 2.5 mM beta-mercaptoethanol, 50% glycerol. The specific activity of the enzyme was about 650 nMoles/min/mg. LTA4 (i.e., substrate) was prepared from the methyl ester of LTA, (Biomol, Inc., Plymouth Meeting, Pa.) by treating the methyl ester with 30 molar equivalents of LiOH at room temperature for 18 hours. The LTA4 substrate in its free acid form was kept frozen at -80° C. until needed. LTA, (free acid) was thawed and diluted in assay buffer (minus DMSO) to a concentration of 350 ng/ml and 25 μl (8 ng) of LTA4 substrate was added to the reaction mixture (total volume of reaction mixture=200 μl at time zero. Each reaction was carried out at room temperature for 10 minutes. The reaction was stopped by diluting 25 μl of the reaction mixture with 500 μl of the assay buffer without DMSO. […] was quantified in the diluted sample by a commercially available enzyme-linked immunoassay [Caymen Chemical Col. Ann Arbor, Mich.] using the method recommended in the manufacturer's instructions and compared to the amount of […] produced in a negative control (i.e., essentially identical conditions except without addition of an inhibitor compound). The IC50 was routinely calculated from the data produced.

In assay [3] the test system is LTB4 production in calcium ionophore-stimulated mouse blood. Nature of the assay: Murine Ex Vivo LTB4 Inhibition, calcium ionophore stimulated mouse blood after oral gavage. It counts as in vivo. The note with it: blood collected 1 hour after administration, ionophore A23187 20 mcg/ml, read-out: Murine Ex Vivo LTB4 Inhibition % I LTB4 at 1 hour after administration of 10 mg/kg. As to the method:
Ex Vivo LTB4 and Thromboxane Production by Calcium Ionophore Stimulated Mouse Blood for LTB4 Hydrolase Inhibitor Activity
Leukotriene A4 hydrolase inhibitor compounds of the present invention were diluted to a predetermined concentration in phosphate buffered saline containing 2%; DMSO and 1% Tween 80. The compounds were administered by oral gavage to adult male outbred mice weighing approximately 20-30 gm at a dose of 10 mg/kg body weight. (Compounds given at a dose of 50 mg/kg body weight are designated in following Table by the symbol, *) Sixty (60) minutes after administration of an LTA4 inhibitor compound of the invention, blood was collected (into heparin-containing tubes) from the retroorbital sinus. […] The mixture was incubated for 10 minutes at 37° C. in a humidified incubator. The reaction was terminated by centrifugation (833 g. 10 minutes at 4° C.). Supernatant were analyzed for LTB4 and thromboxane by commercially available enzyme-linked immunoassays [Caymen Chemical Co., Ann Arbor, Mich.] in accordance with the manufacturer's instructions. The percent inhibition was determined by comparison to animals treated identically except that the solution administered by oral gavage was devoid of inhibitor compound.

Assay [4] has as its system granulocyte. The note with it: R. Lewis, et al., 1990; cited from earlier work.
The subject of assay [5] is LTA4 hydrolase. The following applies: background statement, no value; cited from earlier work.

For orientation: IC50 means the midpoint of a concentration-inhibition curve.

With `N=C(COc1ccc(Cc2ccccc2)cc1)N1CCCC1` [Example 3, α[[4-(phenylmethyl)phenoxy)methyl]-1-pyrrolidinemethanimine, monohydrochloride], the IC50 in assay [1] came to 0.053 µM; in assay [2] it was 0.004 µM. In addition, the inhibition at 10 mg/kg in assay [3] is 46%.
For `N=C(COc1ccc(Cc2ccccc2)cc1)N1CCCCC1` [Example 4, α[[4-(phenylmethyl)phenoxy)methyl]-1-peperidinemethanimine, monohydrochloride], the IC50 in assay [1] was 0.085 µM; in assay [2], 0.0043 µM. Also, the inhibition at 10 mg/kg in assay [3] was 30%.
For `CCOC(=O)C1CCN(C(=N)COc2ccc(Cc3ccccc3)cc2)CC1` [Example 5, ethyl 1-[1-imino-2-[4-(phenylmethyl)phenoxy]ethyl]-4-piperidinecarboxylate,monohydrochloride], the IC50 in assay [1] came out at 0.071 µM; in assay [2], 0.0013 µM. Further, the inhibition at 10 mg/kg in assay [3] stood at 62%.
`CCOC(=O)CCNC(=N)COc1ccc(Cc2ccccc2)cc1` [Example 6, ethyl 3-[[1-imino-2-[4-(phenylmethyl)phenoxy]ethyl]amino]propanoate, monohydrochloride]: the IC50 turned out to be 0.2 µM in assay [1] and 0.023 µM in assay [2]. Further, the inhibition at 10 mg/kg in assay [3] turned out to be 54%.
The matching figures for `c1ccc(Cc2ccc(OCC3=NCCN3)cc2)cc1` [Example 7, 4,5-dihydro-2-[[4-(phenylmethyl)phenoxy]methyl]-1H-imidazole]: 0.22 µM, 0.07 µM and 33%.
The matching figures for `COC(=O)CCN1CCN=C1COc1ccc(Cc2ccccc2)cc1` [Example 8]: 0.55 µM, 1.17 µM and 68%.
The like results for `N=C(COc1ccc(Cc2ccccc2)cc1)N1CCC(C(N)=O)CC1` [Example 9, 1-[1-imino-2-[4-(phenylmethyl)phenoxy]ethyl]-4-piperidinecarboxamide] were, in that order, 0.077 µM, 0.017 µM and 30%.
As to `N=C(N)COc1ccc(Cc2ccccc2)cc1` [Example 10, 1-imino-2-[4-(phenylmethyl)phenoxy]ethanamine], the IC50 turned out to be 0.48 µM in assay [1] and 0.089 µM in assay [2]. Also, in assay [3], the inhibition at 10 mg/kg stood at 0%.
On to `N=C(COc1ccc(Cc2ccccc2)cc1)NC1C2CC3CC(C2)CC1C3` (stereo not shown) [Example 11, 2-[4-(phenylmethyl)phenoxy]-N-(tricyclo[3.3.1.1 3,7]decan-2-yl)ethanimidamide, monohydrate], for which the IC50 in assay [2] is 7.8 µM.
For `NC(COc1ccc(Cc2ccccc2)cc1)=NO` [Example 12, N'-hydroxy-2-[4-(phenylmethyl)phenoxy]ethanimidamine], the IC50 in assay [1] was 17.9 µM; in assay [2] it was more than 100 µM. In assay [3], the inhibition at 10 mg/kg was 63%.
Consider `c1ccc(Cc2ccc(OCC3=NC4CCCCC4N3)cc2)cc1` (stereo not shown) [Example 13], for which the IC50 in assay [1] is 0.19 µM; in assay [2] it was 0.2 µM. In addition, the inhibition at 10 mg/kg in assay [3] was 71%.
`N=C(CCCOc1ccc(Cc2ccccc2)cc1)N1CCCCC1` [Example 16, α-[3-[4-(phenylmethyl)phenoxy)propyl]-1-peperidinemethanimine, monohydrochloride]: the IC50 was 0.64 µM in assay [1] and 0.053 µM in assay [2]. For the same molecule, in assay [3], the inhibition at 10 mg/kg is 60%.
The like results for `c1ccc(Cc2ccc(OCCCC3=NCCN3)cc2)cc1` [Example 17] were, in that order, 0.64 µM, 0.064 µM and 28%.
In the case of `CCCCC/C=C\C[C@@H](O)/C=C/C=C/C=C\[C@@H](O)CCCC(=O)O` [LTB4], in assay [4], the “granulocyte agonist activity inducing chemotaxis, aggregation, degranulation, adherence and priming” value was “potent granulocyte agonist”.
`CC(C)C[C@H](NC(=O)[C@@H](O)[C@H](N)Cc1ccccc1)C(=O)O` [bestatin]: the “LTA4 hydrolase inhibitory activity” value in assay [5] was “exhibit LTA4 hydrolase inhibitory activity”.
Consider `C[C@H](CS)C(=O)N1CCC[C@H]1C(=O)O` [captopril], for which, in assay [5], the “LTA4 hydrolase inhibitory activity” value is “exhibit LTA4 hydrolase inhibitory activity”.
